PubChem BioAssay AID248 (DTP/NCI, 2004)
Where “and” joins values, the source holds several entries; their conditions need not be identical. Equal values may be shown once. Toxic doses and inconclusive results are not listed. No stated cut-off is given here; in the data, active means T/C of 150% or more; inactive means T/C below 125%.

Test system: L1210 leukemia ip in BDF1 mice, survival T/C
Assay: NCI In Vivo Anticancer Drug Screen. Data for tumor model L1210 Leukemia (intraperitoneal) in B6D2F1 (BDF1) mice
Details: endpoint: mean survival time, higher = longer survival
In short: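 Transplanted-tumor mice were given test agent; controls received vehicle only. Survival readings from the two groups were divided (treated over control).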

[1] = dose: 100.0 mg/kg/injection, schedule: Q01DX005 (ip), vehicle: saline
[2] = dose: 200.0 mg/kg/injection, schedule: Q01DX005 (ip), vehicle: saline
[3] = dose: 100.0 mg/kg/injection, schedule: Q04DX003 (ip), vehicle: Klucel (hydroxypropylcellulose) (HPC)
[4] = dose: 200.0 mg/kg/injection, schedule: Q04DX003 (ip), vehicle: Klucel (hydroxypropylcellulose) (HPC)
[5] = dose: 400.0 mg/kg/injection, schedule: Q04DX003 (ip), vehicle: Klucel (hydroxypropylcellulose) (HPC)
[6] = dose: 100.0 mg/kg/injection, schedule: Q04DX002 (ip), vehicle: Klucel (hydroxypropylcellulose) (HPC)
[7] = dose: 200.0 mg/kg/injection, schedule: Q04DX002 (ip), vehicle: Klucel (hydroxypropylcellulose) (HPC)
[8] = dose: 400.0 mg/kg/injection, schedule: Q04DX002 (ip), vehicle: Klucel (hydroxypropylcellulose) (HPC)
[9] = dose: 50.0 mg/kg/injection, schedule: Q01DX009 (ip), vehicle: saline
[10] = dose: 100.0 mg/kg/injection, schedule: Q01DX009 (ip), vehicle: saline
[11] = dose: 100.0 mg/kg/injection, schedule: Q04DX003 (ip), vehicle: saline
[12] = dose: 200.0 mg/kg/injection, schedule: Q01DX009 (ip), vehicle: saline
[13] = dose: 200.0 mg/kg/injection, schedule: Q04DX003 (ip), vehicle: saline
[14] = dose: 400.0 mg/kg/injection, schedule: Q01DX009 (ip), vehicle: saline
[15] = dose: 400.0 mg/kg/injection, schedule: Q04DX003 (ip), vehicle: saline
[16] = dose: 100.0 mg/kg/injection, schedule: Q01DX001 (ip), vehicle: other
[17] = dose: 200.0 mg/kg/injection, schedule: Q01DX001 (ip), vehicle: other
[18] = dose: 400.0 mg/kg/injection, schedule: Q01DX001 (ip), vehicle: other
[19] = dose: 100.0 mg/kg/injection, schedule: Q01DX009 (ip), vehicle: Klucel (hydroxypropylcellulose) (HPC)
[20] = dose: 200.0 mg/kg/injection, schedule: Q01DX009 (ip), vehicle: Klucel (hydroxypropylcellulose) (HPC)
[21] = dose: 400.0 mg/kg/injection, schedule: Q01DX009 (ip), vehicle: Klucel (hydroxypropylcellulose) (HPC)
[22] = dose: 100.0 mg/kg/injection, schedule: Q01DX001 (ip), vehicle: saline
[23] = dose: 200.0 mg/kg/injection, schedule: Q01DX001 (ip), vehicle: saline
[24] = dose: 400.0 mg/kg/injection, schedule: Q01DX001 (ip), vehicle: saline
[25] = dose: 100.0 mg/kg/injection, schedule: Q04DX003 (ip), vehicle: saline with Tween-80
[26] = dose: 200.0 mg/kg/injection, schedule: Q04DX003 (ip), vehicle: saline with Tween-80
[27] = dose: 400.0 mg/kg/injection, schedule: Q04DX003 (ip), vehicle: saline with Tween-80
[28] = dose: 100.0 mg/kg/injection, schedule: Q01DX009 (ip), vehicle: saline with Tween-80
[29] = dose: 200.0 mg/kg/injection, schedule: Q01DX009 (ip), vehicle: saline with Tween-80

Measured: T/C

O=C(NN1CCOCC1)c1ccc([N+](=O)[O-])s1
inactive: dose: 50.0 mg/kg/injection, schedule: Q01DX005 (ip), vehicle: saline 98 % of control | [1] 102 % of control | [2] 98 % of control

CCCCCCCN(CCCCCCC)CCC(=O)c1ccc2cc(Br)c3ccccc3c2c1
inactive: dose: 55.0 mg/kg/injection, schedule: Q01DX Z (ip), vehicle: methylcellulose (MC) 97 % of control | dose: 83.0 mg/kg/injection, schedule: Q01DX Z (ip), vehicle: methylcellulose (MC) 86 % of control | dose: 125.0 mg/kg/injection, schedule: Q01DX Z (ip), vehicle: methylcellulose (MC) 97 % of control

C/C=C/C=C/C=N/N=C(N)N
inactive: dose: 15.0 mg/kg/injection, schedule: Q01DX Z (ip), vehicle: carboxymethylcellulose (CMC) 97 % of control | dose: 30.0 mg/kg/injection, schedule: Q01DX Z (oral), vehicle: carboxymethylcellulose (CMC) 109 % of control | dose: 60.0 mg/kg/injection, schedule: Q01DX Z (oral), vehicle: carboxymethylcellulose (CMC) 103 % of control | dose: 120.0 mg/kg/injection, schedule: Q01DX Z (oral), vehicle: carboxymethylcellulose (CMC) 103 % of control and 112 % of control | dose: 240.0 mg/kg/injection, schedule: Q01DX Z (oral), vehicle: carboxymethylcellulose (CMC) 102 % of control and 107 % of control

CC(C)=NOC(=O)NCCCl
inactive: [3] 103 % of control | [4] 101 % of control | [5] 97 % of control

COC1OC2COC(c3ccccc3)OC2C(NC(C)=O)C1OS(C)(=O)=O (stereo not drawn)
inactive: [6] 101 % of control | [7] 101 % of control | [8] 105 % of control

O=C(O)CC1C=CCC1 (stereo not drawn)
inactive: dose: 25.0 mg/kg/injection, schedule: Q04DX003 (ip), vehicle: saline 90 % of control

CCC(c1ccc2cc(OC)ccc2c1)C(C)(C)C(=O)F (stereo not drawn)
inactive: dose: 25.0 mg/kg/injection, schedule: Q01DX009 (ip), vehicle: saline 94 % of control | dose: 31.3 mg/kg/injection, schedule: Q01DX Z (sc), vehicle: steriod suspending solution 107 % of control | dose: 50.0 mg/kg/injection, schedule: Q01DX001 (ip), vehicle: steriod suspending solution 98 % of control | [9] 100 % of control | dose: 62.5 mg/kg/injection, schedule: Q01DX Z (sc), vehicle: steriod suspending solution 110 % of control | dose: 100.0 mg/kg/injection, schedule: Q01DX001 (ip), vehicle: steriod suspending solution 96 % of control | dose: 100.0 mg/kg/injection, schedule: Q04DX003 (ip), vehicle: acetone 94 % of control | dose: 125.0 mg/kg/injection, schedule: Q01DX Z (sc), vehicle: steriod suspending solution 108 % of control | dose: 250.0 mg/kg/injection, schedule: Q01DX Z (sc), vehicle: steriod suspending solution 108 % of control

CSCCC(NC(C)=O)C(=O)O (stereo not drawn)
inactive: [10] 99 % of control | [11] 94 % of control | [12] 86 % of control | [13] 91 % of control | [14] 96 % of control | [15] 91 % of control

O=C(c1ccccc1)c1ccccc1O
inactive: dose: 50.0 mg/kg/injection, schedule: Q01DX001 (ip), vehicle: other 90 % of control | [16] 93 % of control | [17] 101 % of control | [18] 95 % of control

O=C(OCC#CC#CCOC(=O)c1cccc2ccccc12)c1cccc2ccccc12
inactive: [19] 93 % of control | [20] 89 % of control | [21] 93 % of control

Nc1ncnc2c1ncn2C1OC(C(O)CO)C(O)C1N (stereo not drawn)
inactive: dose: 50.0 mg/kg/injection, schedule: Q01DX001 (ip), vehicle: carboxymethylcellulose (CMC) 111 % of control | dose: 100.0 mg/kg/injection, schedule: Q01DX001 (ip), vehicle: carboxymethylcellulose (CMC) 105 % of control | dose: 200.0 mg/kg/injection, schedule: Q01DX001 (ip), vehicle: carboxymethylcellulose (CMC) 108 % of control | dose: 400.0 mg/kg/injection, schedule: Q01DX001 (ip), vehicle: carboxymethylcellulose (CMC) 108 % of control

CCC(Nc1ccccc1)C(=O)O (stereo not drawn)
inactive: [22] 96 % of control | [23] 100 % of control | [24] 102 % of control

O=C(O)C(=S)Cc1cn[nH]n1
inactive: [22] 103 % of control | [24] 100 % of control

O=C1CC(N2C(=O)C3C4CCC(CC4)C3C2=O)C(=O)N1 (stereo not drawn)
inactive: [25] 96 % of control | [26] 100 % of control | [27] 112 % of control

CC(C)(C)OOC(=O)Nc1ccc(Cl)cc1
inactive: dose: 200.0 mg/kg/injection, schedule: Q01DX001 (ip), vehicle: saline with Tween-80 89 % of control | dose: 400.0 mg/kg/injection, schedule: Q01DX001 (ip), vehicle: saline with Tween-80 92 % of control

COC1CCC(N)CC1 (stereo not drawn)
inactive: [22] 109 % of control | [23] 107 % of control | [24] 97 % of control

CC(=O)CC(=O)Nc1cc(C(F)(F)F)ccc1Cl
inactive: [22] 97 % of control | [23] 101 % of control | [24] 101 % of control

CCOC(=O)c1cnn(C(N)=O)c1N
inactive: [28] 108 % of control | [29] 96 % of control

CC1N=C(N)NC(=O)C1c1ccc(Cl)cc1 (stereo not drawn)
inactive: [28] 103 % of control | [29] 100 % of control

Cc1ccc([N+](=O)[O-])cc1NC(=O)Nc1ccc(Nc2ccccc2)cc1
inactive: [6] 86 % of control | [7] 86 % of control | [8] 97 % of control

CCCCN1C(=O)CC(C23C(=O)N(CCCC)C(=O)C2CCc2ncccc23)C1=O (stereo not drawn)
inactive: [19] 87 % of control | [3] 94 % of control | [20] 89 % of control | [4] 99 % of control | [21] 87 % of control | [5] 90 % of control

CCOC(=O)C(CO)(CO)C(=O)OCC
inactive: [10] 106 % of control | [12] 92 % of control | [14] 100 % of control

CC1(C)OC2COC(c3[nH]nc4c(=O)[nH][nH]c(=O)c34)C2O1 (stereo not drawn)
inactive: [1] 103 % of control | [2] 106 % of control

CCC(=O)N(C)C(=NC)c1ccc(NC(=O)c2ccc(C(=O)Nc3ccc(C(=NC)N(C)C(=O)CC)cc3)cc2)cc1
inactive: dose: 75.0 mg/kg/injection, schedule: Q01DX015 (ip), vehicle: carboxymethylcellulose (CMC) 90 % of control | dose: 100.0 mg/kg/injection, schedule: Q01DX015 (ip), vehicle: carboxymethylcellulose (CMC) 91 % of control | dose: 150.0 mg/kg/injection, schedule: Q01DX015 (ip), vehicle: carboxymethylcellulose (CMC) 90 % of control | dose: 200.0 mg/kg/injection, schedule: Q01DX015 (ip), vehicle: carboxymethylcellulose (CMC) 97 % of control

CN1CCN(Cc2cc(C(C)(C)C)cc(-c3ccccc3)c2O)CC1
inactive: [11] 92 % of control | [13] 102 % of control | [15] 110 % of control

COc1ccc(NC(=O)CC(C)=O)cc1
inactive: [16] 92 % of control | [25] 94 % of control | [17] 97 % of control | [26] 100 % of control | [18] 103 % of control | [27] 99 % of control

COc1cccc(CCN)c1
inactive: dose: 50.0 mg/kg/injection, schedule: Q01DX001 (ip), vehicle: saline 116 % of control | [22] 110 % of control | [23] 118 % of control

Cc1ccc(NNC(=O)C(O)C(O)C(O)C(O)CO)cc1 (stereo not drawn)
inactive: [9] 92 % of control | [10] 96 % of control | [12] 100 % of control

O=c1ccn(Cc2cccc(OCCCc3ccccc3)c2)c(=O)[nH]1
inactive: [19] 96 % of control | [20] 102 % of control | [21] 97 % of control

CCOC(=O)CC(C)(O)C1CC1 (stereo not drawn)
inactive: [25] 98 % of control | [26] 96 % of control | [27] 98 % of control
